Data on 2 compounds can be found in patent US5885985A, “Guanidine derivatives useful in therapy” (priority 1993, dated 1999).

Structures can show the parent of a compound that is named as a salt.

For experiment [1], the target named is T1, neuronal isoform of nitric oxide synthetase (Rattus norvegicus, UniProt P29476).
T1 construct: Enzyme was isolated from rat hippocampus or cerebellum; from tissue; host or cells: hippocampus or cerebellum of male Sprague-Dawley rat (20,000 g supernatant)
Kind of experiment: biochemical. Conditions: enzyme from rat hippocampus or cerebellum; 22° C., 10 minutes; read-out: IC50 in the screen for activity against the neuronal isoform of nitric oxide synthetase.
Method: 1) Screen for Neuronal Nitric Oxide Synthase Inhibition Activity
Enzyme was isolated from rat hippocampus or cerebellum. The cerebellum or hippocampus of a male Sprague-Dawley rat (250-275g) is removed following CO2 anaesthesia of the animal and decapitation. Cerebellar or hippocampal supernatant is prepared by homogenisation in 50 mM Tris-HCl with 1 mM EDTA buffer (pH 7.2 at 25° C.) and centifugation for 15 minutes at 20,000 g. Residual L-arginine is removed from the supernatant by chromatography through Dowex AG-50W-X8 sodium form and hydrogen form columns successively, and further centrifugation at 1000 g for 30 seconds.
For the assay, 25 μl of the final supernatant is added to each of 12 test tubes containing 25 μl L-arginine solution (of concentration 18 μM ^1 H-L-arginine, 96 nM ^3 H-L-arginine) and either 25 μl of an assay buffer (50 mM HEPES, 1 mM EDTA, 1.5 mM CaCl2, pH 7.4) or 25 μl of test compound in the buffer at 22° C. […]
Labelled L-citrulline is separated from labelled L-arginine by chromatography over a Dowex AG-50W-X8 200-400 mesh column. […] The L-citrulline is then quantified by scintillation counting. […]

Experiment [2] has as its target T2, macrophage isoform of nitric oxide synthetase (Mus musculus, UniProt P29477).
T2 construct: endogenous in cells; host or cells: murine macrophage cell line J774A-1 (from laboratories of the Imperial Cancer Research Fund), induced with LPS and IFN-gamma
Nature of the experiment: Screen for Macrophage Nitric Oxide Synthase Inhibition Activity. The format is biochemical. Conditions: lysate of induced murine J774A-1 cells; 1 hour at room temperature; read-out: IC50 in the screen for activity against the macrophage isoform of nitric oxide synthetase. From the text: The enzyme nitric oxide synthetase has a number of isoforms and compounds of formula I, or a pharmaceutically acceptable salt thereof, may be screened for nitric oxide synthetase inhibition activity by procedures based on those of Bredt and Snyder in Proc. Natl. Acad. Sci. (1990) 87, 682-685 and Forstermann et. al. (1992) Eur. J. Pharm. 225, 161-165. Nitric oxide synthetase converts ^3 H-L-arginine to ^3 H-L-citrulline which can be separated by cation exchange chromatography and quantified by liquid scintillation counting.
(2) Screen for Macrophage Nitric Oxide Synthase Inhibition Activity
Enzyme is prepared, after induction, from the cultured murine macrophage cell line J774A-1 (obtained from laboratories of the Imperial Cancer Research Fund). J774A-1 cells are cultured in Dulbecco's Modified Eagles Medium (DMEM) supplemented with 10% foetal bovine serum, 4 mM L-glutamine and antibiotics (100 units/ml penicillin G, 100 μg/ml streptomycin & 0.25 μg/ml amphotericin B). Cells are routinely grown in […] flasks containing 35 ml medium kept at 37° C. and in a humidified atmosphere containing 5% CO2.
Nitric oxide synthase is produced by cells in response to inferferon-γ(IFNγ) and lipopolysaccharide (LPS). […]
Labelled L-citrulline is separated from labelled L-arginine using Dowex AG-50W. […] After allowing the samples to dry the L-citrulline is quantified by scintillation counting. […]

Experiment [3] has as its target T3, endothelial isoform of nitric oxide synthetase (Homo sapiens, UniProt P29474).
T3 construct: Enzyme may be isolated from human umbilical vein endothelial cells (HUVECs); host or cells: human umbilical vein endothelial cells (HUVECs), CHAPS-solubilised particulate fraction
Nature of the experiment: Screen for Endothelial Nitric Oxide Synthase Inhibition Activity. Format: biochemical.
Method: 3) Screen for Endothelial Nitric Oxide Synthase Inhibition Activity
HUVECs were purchased from Clonetics Corp (San Diego, Calif., USA) and cultured to confluency. Cells can be maintained to passage 35-40 without significant loss of yield of nitric oxide synthase. When cells reach confluency, they are resuspended in Dulbecco's phosphate buffered saline, centrifuged at 800 rpm for 10 mins, the cell pellet homogenised in ice-cold 50 mM Tris-HCl, 1 mM EDTA, 10% glycerol, 1 mM phenylmethylsulphonylfluoride, 2 μM leupeptin at pH 4.2. Following centrifugation at 34,000 rpm for 60 mins, the pellet is solubilised in the homogenisation buffer which also contains 20 mM CHAPS. After a 30 min incubation on ice, the suspension is centrifuged at 34,000 rpm for 30 mins. The resulting supernatant is stored at -80° C. until use. […]
Labelled L-citrulline is separated from labelled L-arginine by chromatography over a Dowex AG-50W-X8 200-400 mesh column. […] The L-citruiline is then quantified by scintillation counting. […]

T3 sequence (P29474 2-1203): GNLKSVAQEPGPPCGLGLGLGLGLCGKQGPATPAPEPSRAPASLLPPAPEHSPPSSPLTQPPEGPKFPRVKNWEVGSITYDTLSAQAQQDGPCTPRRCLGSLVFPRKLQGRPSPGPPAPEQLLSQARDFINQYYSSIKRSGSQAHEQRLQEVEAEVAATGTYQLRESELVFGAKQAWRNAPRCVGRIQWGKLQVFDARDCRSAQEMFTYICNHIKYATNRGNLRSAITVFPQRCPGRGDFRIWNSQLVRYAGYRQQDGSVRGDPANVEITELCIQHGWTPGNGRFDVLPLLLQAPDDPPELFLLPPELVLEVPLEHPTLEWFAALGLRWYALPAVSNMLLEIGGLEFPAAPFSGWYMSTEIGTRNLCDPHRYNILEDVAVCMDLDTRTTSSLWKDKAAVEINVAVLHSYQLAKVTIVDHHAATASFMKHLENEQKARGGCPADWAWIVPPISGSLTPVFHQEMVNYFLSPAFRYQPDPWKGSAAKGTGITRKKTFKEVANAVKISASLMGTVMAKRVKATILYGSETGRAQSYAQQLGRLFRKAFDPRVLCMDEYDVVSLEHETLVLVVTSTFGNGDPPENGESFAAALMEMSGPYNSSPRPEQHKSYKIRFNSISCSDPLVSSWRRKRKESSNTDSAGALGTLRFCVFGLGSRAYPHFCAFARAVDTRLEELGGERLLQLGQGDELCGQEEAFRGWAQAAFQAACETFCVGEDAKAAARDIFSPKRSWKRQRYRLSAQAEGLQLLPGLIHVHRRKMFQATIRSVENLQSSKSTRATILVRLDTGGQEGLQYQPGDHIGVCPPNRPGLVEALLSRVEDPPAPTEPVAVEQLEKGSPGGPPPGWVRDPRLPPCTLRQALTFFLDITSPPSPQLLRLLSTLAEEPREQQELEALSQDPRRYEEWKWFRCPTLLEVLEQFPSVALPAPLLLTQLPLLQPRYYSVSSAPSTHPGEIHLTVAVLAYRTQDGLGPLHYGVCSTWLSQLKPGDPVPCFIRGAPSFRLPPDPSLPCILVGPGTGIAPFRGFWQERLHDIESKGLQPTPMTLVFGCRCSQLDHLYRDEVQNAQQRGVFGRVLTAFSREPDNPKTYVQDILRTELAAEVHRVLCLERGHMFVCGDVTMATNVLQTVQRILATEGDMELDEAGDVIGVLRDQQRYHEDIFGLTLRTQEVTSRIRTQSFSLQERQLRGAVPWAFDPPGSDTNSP
T1 sequence (P29476 whole entry, canonical isoform): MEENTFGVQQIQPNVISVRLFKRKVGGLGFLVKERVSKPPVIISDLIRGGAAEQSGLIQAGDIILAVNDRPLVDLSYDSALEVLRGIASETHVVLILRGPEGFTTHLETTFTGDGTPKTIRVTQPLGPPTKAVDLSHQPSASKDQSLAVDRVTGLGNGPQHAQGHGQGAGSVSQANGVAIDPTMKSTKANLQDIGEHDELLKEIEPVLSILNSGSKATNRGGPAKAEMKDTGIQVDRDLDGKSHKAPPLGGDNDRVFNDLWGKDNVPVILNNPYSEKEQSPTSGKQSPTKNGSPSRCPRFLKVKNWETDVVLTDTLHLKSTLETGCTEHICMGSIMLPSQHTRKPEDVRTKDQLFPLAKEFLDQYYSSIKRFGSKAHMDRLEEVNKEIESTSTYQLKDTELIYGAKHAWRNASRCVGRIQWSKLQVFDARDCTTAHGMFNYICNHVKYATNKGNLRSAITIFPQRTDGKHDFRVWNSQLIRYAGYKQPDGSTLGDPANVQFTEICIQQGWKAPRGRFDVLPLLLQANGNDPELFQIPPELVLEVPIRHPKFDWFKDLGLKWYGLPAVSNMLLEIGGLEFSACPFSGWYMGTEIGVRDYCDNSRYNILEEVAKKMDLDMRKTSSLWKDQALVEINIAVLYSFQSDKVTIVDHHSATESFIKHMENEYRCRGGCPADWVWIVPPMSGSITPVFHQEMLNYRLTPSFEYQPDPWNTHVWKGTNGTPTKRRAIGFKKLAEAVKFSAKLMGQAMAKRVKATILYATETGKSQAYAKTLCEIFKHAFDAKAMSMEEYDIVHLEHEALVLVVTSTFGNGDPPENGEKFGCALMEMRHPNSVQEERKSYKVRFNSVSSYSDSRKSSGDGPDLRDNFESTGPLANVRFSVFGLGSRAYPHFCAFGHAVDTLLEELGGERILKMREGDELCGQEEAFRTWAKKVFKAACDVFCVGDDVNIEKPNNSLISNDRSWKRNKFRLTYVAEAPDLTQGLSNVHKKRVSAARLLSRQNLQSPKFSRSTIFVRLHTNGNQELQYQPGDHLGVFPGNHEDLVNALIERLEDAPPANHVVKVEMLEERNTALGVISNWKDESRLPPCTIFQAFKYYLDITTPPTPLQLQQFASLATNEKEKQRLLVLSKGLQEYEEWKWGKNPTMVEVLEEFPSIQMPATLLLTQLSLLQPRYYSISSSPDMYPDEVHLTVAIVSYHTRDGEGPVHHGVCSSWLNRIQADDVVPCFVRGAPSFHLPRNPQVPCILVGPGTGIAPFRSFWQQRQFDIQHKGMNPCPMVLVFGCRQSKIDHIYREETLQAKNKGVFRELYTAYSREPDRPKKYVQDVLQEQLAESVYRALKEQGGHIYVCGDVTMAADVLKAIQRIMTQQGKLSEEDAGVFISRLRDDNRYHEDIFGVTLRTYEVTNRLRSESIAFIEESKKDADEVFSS

For `CC(=O)Nc1cccc(NC(=N)N2CCCC2)c1` [Example 1, N-(3-((methylcarbonyl)amino)phenyl)-1-pyrrolidinecarboximidamide monohydrochloride], the IC50 in experiment [1] was < 10 µM; in experiment [2], > 100 µM; in experiment [3] (enzyme from HUVECs, 22° C., 10 minutes, read-out: IC50 in the screen for activity against the endothelial isoform of nitric oxide synthetase), > 100 µM.
`N=C(NCCC[C@H](N)C(=O)O)N[N+](=O)[O-]` [N-nitro-L-arginine, reference compound] yielded an inhibition at 1 µM in experiment [3] (at a concentration of 1 μM, reference standard) of 70 to 90%.

The term IC50 denotes the concentration that inhibits the measured activity by half. One may read the inhibition as the change of the read-out against control, counted positive when it falls. A higher inhibition goes with a response far below the control.
